The values that follow come from patent US20240327354A1, “GRAM-NEGATIVE BACTERIA EFFLUX PUMP INHIBITORS” (INSTITUT NATIONAL DE LA SANTÉ ET DE LA RECHERCHE MÉDICALE, priority 2021, published 2024).

Structures can show the parent of a compound that is named as a salt. Bounds are passed on as bounds.

In assay [1] the test system is A. baumannii LMG 1025 (ATCC 17978). Description: Assay 2: growth inhibition of A. baumannii by sub-inhibitory chloramphenicol in combination with examples (resazurin reduction). It counts as cell-based, Acinetobacter baumannii. The following applies: read-out: EC90 on A. baumannii with 10 μg/mL of chloramphenicol, 10 μg/mL chloramphenicol, 5 h or 24 h, 37° C. From the text: (§1) Escherichia coli BW25113 (CGSC 7636) and its derivatives E. coli ΔtolC (JW5503-1, ΔtolC732::kan, CGSC 11430), E. coli ΔacrA (JW0452-3, ΔacrA748::kan, CGSC 11843) and E. coli ΔacrB (JW0451-2, ΔacrB747::kan, CGSC 8609) were obtained from E. coli Genetic Stock Center (CGSC, New Haven, Connecticut) and originated from the Keio Collection (Baba T et al, Mol Sys Biol, 2006). Klebsiella pneumoniae (LMG 2095/ATCC 13883) and K. pneumoniae (ATCC43816), Pseudomonas aeruginosa (PAO1), Acinetobacter baumannii (LMG 1025, ATCC 17978), were obtained from ATCC or BCCM/LMG Bacteria Collection. All bacteria were grown and tested in cation-adjusted Mueller-Hinton broth (CAMHB; BD Difco) at 37° C. For conservation, log phase bacteria were frozen (−80° C.) in CAMHB supplemented with 15% glycerol.
Measurement of Growth Inhibition of A. baumannii Strains by Sub Inhibitory Concentrations of Chloramphenicol in Combination with Examples 1-137
For the evaluation of the dose dependent activity of examples 1-137, their ability to boost the antibacterial activity of sub-inhibitory concentrations chloramphenicol was determined. Briefly, A. baumannii LMG 1025 (ATCC 17978) were diluted from frozen or growing stocks to an OD600 of 0.001 in CAMHB. The bacterial suspension was then used as such (no-antibiotic control to evaluate EPI activity), or spiked with chloramphenicol at a final concentration of 10 μg/mL. Bacteria were then added to microplates carrying serial dilutions of the compounds examples 1-137, and incubated for (5 h or 24 h, 37° C.). Bacterial viability was evaluated using the resazurin reduction assay, and measured by fluorescence (POLARstar Omega, BMG Labtech: Ex: 530 nm Em: 590 nm). […] were defined as the compound concentration that prevented 90% of resazurin turnover compared to the non-treated bacteria.

A further assay concerns E. coli BW25113. As to the kind of experiment: Assay 1: growth inhibition of E. coli by sub-inhibitory pyridomycin in combination with examples (resazurin reduction). It counts as cell-based, Escherichia coli. The following applies: read-out: EC50 on E. coli with 8 μg/mL of pyridomycin, 8 μg/mL pyridomycin, 5 h, 37° C.
Source text: as §1
Briefly, E. coli BW25113 were diluted from frozen or growing stocks to an OD600 of 0.0004-0.001 in CAMHB. […] E. coli BW25113 viability was evaluated using the resazurin reduction assay, and measured by fluorescence (POLARstar Omega, BMG Labtech: Ex: 530 nm Em: 590 nm). EC50 were defined as the compound concentration that prevented 50% of resazurin turnover compared to the non-treated bacteria.
(Resazurin is reduced to fluorescent resorufin, in cell work by metabolically active cells.)

As for `Clc1nc2ccccc2nc1N1CC2CC(C1)N2` [Example 83, 2-chloro-3-(3,6-diazabicyclo[3.1.1]heptan-3-yl)quinoxaline; trifluoromethanesulfonic acid], the EC90 in assay [1] is 100 to 500 µM. Also, the EC50 in the assay on E. coli BW25113 was in the range of 100 to 500 µM.

For the compound `O=C(OCCCc1ccccc1)c1cnc(N2CCNCC2)c(Cl)c1` [Example 23, 3-phenylpropyl 5-chloro-6-piperazin-1-yl-pyridine-3-carboxylate;hydrochloride], the EC90 in assay [1] fell in the range of 100 to 500 µM. The EC50 in the assay on E. coli BW25113 lay in the range of 100 to 500 µM. As for `FC(F)(F)c1ccc2nc(N3CCNCC3)c(Br)cc2c1` [Example 53, 3-bromo-2-piperazin-1-yl-6-(trifluoromethyl)quinoline; hydrochloride], the EC90 in assay [1] fell in the range of 100 to 500 µM. The EC50 in the assay on E. coli BW25113 fell in the range of 5 to 100 µM. On to `COc1nc2ccccc2nc1N1CCNCC1` [Example 82, 2-methoxy-3-piperazin-1-yl-quinoxaline; 2,2,2-trifluoroacetic acid], for which the EC90 in assay [1] is 100 to 500 µM. In the assay with E. coli BW25113, the EC50 lay in the range of 5 to 100 µM.

As for `FC(F)(F)c1cnc(N[C@H]2[C@@H]3CNC[C@@H]32)c(Cl)c1` [Example 16, (1R,5S)-N-[3-chloro-5-(trifluoromethyl)-2-pyridyl]-3-azabicyclo[3.1.0]hexan-6-amine;formic acid], the EC90 in assay [1] is 100 to 500 µM. Same read-out and setting: next, `Clc1nc2ccccc2nc1N[C@H]1[C@@H]2CNC[C@@H]21` [Example 51, N-[(1R,5S)-3-azabicyclo[3.1.0]hexan-6-yl]-3-chloro-quinoxalin-2-amine;hydrochloride]: 100 to 500 µM; `Clc1cc2ccccc2nc1N[C@H]1[C@@H]2CNC[C@@H]21` [Example 57, N-[(1R,5S)-3-azabicyclo[3.1.0]hexan-6-yl]-3-chloro-quinolin-2-amine;hydrochloride]: 100 to 500 µM. As for `NCCn1cc(-c2ccc3nc(N4CCNCC4)c(Cl)cc3c2)nn1` [Example 94, 2-[4-(3-chloro-2-piperazin-1-yl-6-quinolyl)triazol-1-yl]ethanamine;dihydrochloride], the EC50 in the assay with E. coli BW25113 is under 5 µM. Regarding `Clc1cc2ncccc2nc1N1CCNCC1` [Example 69, 3-chloro-2-piperazin-1-yl-1,5-naphthyridine; hydrochloride], the EC50 with E. coli BW25113 was 5 to 100 µM. Still for that read-out and setting: to `Clc1cc(Br)cnc1N1CCNCC1` [Example 19, 1-(5-bromo-3-chloro-2-pyridyl)piperazine;hydrochloride] belongs 5 to 100 µM; to `NCC1CCCN(c2ccc3nc(N4CCNCC4)c(Cl)cc3c2)C1` (stereo not drawn) [Example 68, [1-(3-chloro-2-piperazin-1-yl-6-quinolyl)-3-piperidyl]methanamine;dihydrochloride], under 5 µM; to `NC1CCN(c2ncc(C(F)(F)F)cc2Cl)CC1` [Example 7, 1-[3-chloro-5-(trifluoromethyl)-2-pyridyl]piperidin-4-amine], 100 to 500 µM. As to `NCc1cccc(COc2cnc(N3CCNCC3)c(Cl)c2)c1` [Example 78, [3-[(5-chloro-6-piperazin-1-yl-3-pyridyl)oxymethyl]phenyl]methanamine;dihydrochloride], in the assay with E. coli BW25113, the EC50 is 5 to 100 µM. Regarding `COc1ccc2nc(Cl)c(N3CCNCC3)nc2c1` [Example 70, 2-chloro-6-methoxy-3-piperazin-1-yl-quinoxaline; hydrochloride], the EC50 in the assay with E. coli BW25113 lay within 5 to 100 µM. For `NCCCn1cc(-c2ccc3nc(N4CCNCC4)c(Cl)cc3c2)nn1` [Example 93, 3-[4-(3-chloro-2-piperazin-1-yl-6-quinolyl)triazol-1-yl]propan-1-amine;dihydrochloride], in the assay on E. coli BW25113, the EC50 is under 5 µM.

For `CCOC(=O)c1cnc(N2CCNCC2)c(Cl)c1` [Example 32, ethyl 5-chloro-6-piperazin-1-yl-pyridine-3-carboxylate; hydrochloride], in the assay with E. coli BW25113, the EC50 was 5 to 100 µM.

As for `C[C@H]1CN(c2nc3ccccc3nc2Cl)CCN1` [Example 50, 2-chloro-3-[(3S)-3-methylpiperazin-1-yl]quinoxaline;hydrochloride], the EC50 in the assay with E. coli BW25113 lay within 5 to 100 µM. `COC(=O)c1cnc(N2CCNCC2)c(Cl)c1` [Example 18, methyl 5-chloro-6-piperazin-1-yl-pyridine-3-carboxylate; hydrochloride]: in the assay with E. coli BW25113, the EC50 lay in the range of 5 to 100 µM.

With `NCCCC#Cc1cnc(N2CCNCC2)c(Cl)c1` [Example 87, 5-(5-chloro-6-piperazin-1-yl-3-pyridyl)pent-4-yn-1-amine; 2,2,2-trifluoroacetic acid], the EC50 in the assay with E. coli BW25113 is under 5 µM. Still for that read-out and setting: next, `COc1cnc(N2CCNCC2)c(Cl)c1` [Example 13, 1-(3-chloro-5-methoxy-2-pyridyl)piperazine;hydrochloride]: 100 to 500 µM; `CC(C)(N)c1cccc(-c2ccc3nc(N4CCNCC4)c(Cl)cc3c2)c1` [Example 114, 2-[3-(3-chloro-2-piperazin-1-yl-6-quinolyl)phenyl]propan-2-amine;dihydrochloride]: under 5 µM. The same measure, in the same setting: next, `NCCc1nc(-c2cnc(N3CCNCC3)c(Cl)c2)no1` [Example 75, 2-[3-(5-chloro-6-piperazin-1-yl-3-pyridyl)-1,2,4-oxadiazol-5-yl]ethanamine;dihydrochloride]: under 5 µM.

Consider `NCc1cccc(-c2ccc3nc(N4CCNCC4)c(Cl)cc3c2)c1Cl` [Example 136, [2-chloro-3-(3-chloro-2-piperazin-1-yl-6-quinolyl)phenyl]methanamine;dihydrochloride], for which the EC50 with E. coli BW25113 was under 5 µM. Still for that read-out and setting: next, `CC(=O)Nc1cnc(N2CCNCC2)c(Cl)c1` [Example 35, N-(5-chloro-6-piperazin-1-yl-3-pyridyl)acetamide;hydrochloride]: 100 to 500 µM. Still for that read-out and setting: next, `C[C@@H](N)c1cccc(-c2ccc3nc(N4CCNCC4)c(Cl)cc3c2)c1` [Example 113, (1R)-1-[3-(3-chloro-2-piperazin-1-yl-6-quinolyl)phenyl]ethanamine;dihydrochloride]: under 5 µM; `NCCC#Cc1cnc(N2CCNCC2)c(Cl)c1` [Example 86, 4-(5-chloro-6-piperazin-1-yl-3-pyridyl)but-3-yn-1-amine; 2,2,2-trifluoroacetic acid]: 5 to 100 µM; `Clc1cc2cc(N[C@H]3CCCNC3)ccc2nc1N1CCNCC1` (stereo in doubt) [Example 104, 3-chloro-2-piperazin-1-yl-N-(3-piperidyl)quinolin-6-amine;dihydrochloride]: under 5 µM. Consider `CN1CCN(c2ncc(Br)cc2Cl)CC1` [Example 4, 1-(5-bromo-3-chloro-2-pyridyl)-4-methyl-piperazine], for which the EC50 in the assay with E. coli BW25113 lay within 5 to 100 µM. On the same count and under the same terms, next, `NCC#Cc1cnc(N2CCNCC2)c(Cl)c1` [Example 85, 3-(5-chloro-6-piperazin-1-yl-3-pyridyl)prop-2-yn-1-amine; 2,2,2-trifluoroacetic acid]: 5 to 100 µM; `CC(=O)Nc1cnc(N2CCN(C)CC2)c(Cl)c1` [Example 80, N-[5-chloro-6-(4-methylpiperazin-1-yl)-3-pyridyl]acetamide]: 5 to 100 µM; `NCCCNc1ccc2nc(N3CCNCC3)c(Cl)cc2c1` [Example 63, N′-(3-chloro-2-piperazin-1-yl-6-quinolyl)propane-1,3-diamine; dihydrochloride]: under 5 µM. Still for that read-out and setting: next, `NCc1ccc(C(F)(F)F)c(-c2ccc3nc(N4CCNCC4)c(Cl)cc3c2)c1` [Example 122, [3-(3-chloro-2-piperazin-1-yl-6-quinolyl)-4-(trifluoromethyl)phenyl]methanamine;dihydrochloride]: under 5 µM; `CN1CCN(c2ncc(C(F)(F)F)cc2Cl)CC1` [Example 1, 1-[3-chloro-5-(trifluoromethyl)-2-pyridyl]-4-methyl-piperazine]: 100 to 500 µM. On to `NCCc1ccc(C#Cc2cnc(N3CCNCC3)c(Cl)c2)cc1` [Example 92, 2-[4-[2-(5-chloro-6-piperazin-1-yl-3-pyridyl)ethynyl]phenyl]ethanamine; 2,2,2-trifluoroacetic acid], for which the EC50 in the assay on E. coli BW25113 is under 5 µM. On to `NCCc1ccc(OC(=O)c2cnc(N3CCNCC3)c(Cl)c2)cc1` [Example 28, [4-(2-aminoethyl)phenyl] 5-chloro-6-piperazin-1-yl-pyridine-3-carboxylate;dihydrochloride], for which the EC50 in the assay on E. coli BW25113 is under 5 µM.
